Data published in ChEMBL document CHEMBL4052769, “Synthesis and biological evaluation of novel 1,2,3-triazole derivatives as anti-tubercular agents” (Bioorg Med Chem Lett, 2017).
Converted amounts (≈) assume the structure as drawn.

What was measured:
[1] = system: Mycobacterium tuberculosis; experiment: Antitubercular activity against Mycobacterium tuberculosis H37Ra ATCC 25177 after 4 weeks by Agar-based proportion Assay; type: functional; conditions: H37Ra ATCC 25177, 672 h
[2] = Selectivity index, ratio of CC50 for Swiss mouse BMDM to MIC for Mycobacterium tuberculosis H37Ra ATCC 25177
[3] = Cytotoxicity against Swiss mouse BMDM assessed as reduction in cell viability after 24 hrs by MTS assay; type: cell-based; conditions: bone marrow-derived macrophages (BMDM)

SMILES | MIC [1] [µg/mL] | Selectivity Index [2] | CC50 at 24 h [3] [µg/mL]
Fc1ccccc1-n1cc(COc2ccc(-c3ccccc3)cc2)nn1 | 0.78 (≈ 2.26 µM) | 128 | 100 (≈ 290 µM)
O=[N+]([O-])c1ccc(Cn2cc(COc3ccc(-c4ccccc4)cc3)nn2)cc1 | > 25 |  | 
Fc1ccc(-n2cc(COc3ccc(-c4ccccc4)cc3)nn2)cc1 | > 25 |  | 
FC(F)Oc1ccc(-n2cc(COc3ccc(-c4ccccc4)cc3)nn2)cc1 | 1.56 (≈ 3.97 µM) |  | 100 (≈ 254 µM)
CC[C@@H](CO)NCCN[C@@H](CC)CO [ETHAMBUTOL] | 2 (≈ 9.79 µM) | 50 | 100 (≈ 489 µM)
O=[N+]([O-])c1ccc(-n2cc(COc3ccc(-c4ccccc4)cc3)nn2)cc1 | > 25 |  | 
c1ccc(CCn2cc(COc3ccc(-c4ccccc4)cc3)nn2)cc1 | > 25 |  | 
Clc1ccc(-n2cc(COc3ccc(-c4ccccc4)cc3)nn2)cc1 | > 25 |  | 
CC(=O)OCCn1cc(COc2ccc(-c3ccccc3)cc2)nn1 | 1.56 (≈ 4.62 µM) | 64.1 | 100 (≈ 296 µM)
COc1ccc(-n2cc(COc3ccc(-c4ccccc4)cc3)nn2)cc1 | > 25 |  | 
Fc1ccc(-n2cc(COc3ccc(-c4ccccc4)cc3)nn2)cc1Cl | 1.56 (≈ 4.11 µM) | 64.1 | 100 (≈ 263 µM)
FC(F)(F)c1ccc(-n2cc(COc3ccc(-c4ccccc4)cc3)nn2)cc1 | 3.12 (≈ 7.89 µM) | 32 | 100 (≈ 253 µM)
N#Cc1ccc(-n2cc(COc3ccc(-c4ccccc4)cc3)nn2)cc1 | > 25 |  | 
Brc1ccc(-n2cc(COc3ccc(-c4ccccc4)cc3)nn2)cc1 | > 25 |  | 
NNC(=O)c1ccncc1 [ISONIAZID] | 0.025 (≈ 0.182 µM) | 4000 | 100 (≈ 729 µM)
c1ccc(Cn2cc(COc3ccc(-c4ccccc4)cc3)nn2)cc1 | > 25 |  | 
c1ccc(-c2ccc(OCc3cn(-c4ccccc4)nn3)cc2)cc1 | > 25 |  | 
CCCCCCCCn1cc(COc2ccc(-c3ccccc3)cc2)nn1 | > 25 |  | 
Fc1ccc(-n2cc(COc3ccc(-c4ccccc4)cc3)nn2)cc1F | 3.12 (≈ 8.59 µM) | 32 | 100 (≈ 275 µM)
